Source: PubChem BioAssay (NCI)
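Interpolation was linear, between the two tested concentrations surrounding the appropriate level; five concentrations were tested over 48 hours in 96-well plates. Definition used: TGI = concentration required for complete inhibition of growth.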

Legend:
Assay in all cases: DTP human tumour cell line panel, 48 h
A498 renal = system: A498 renal
NCI-H460 lung = system: NCI-H460 lung
CAKI-1 renal = system: CAKI-1 renal
HOP-92 NSCLC = system: HOP-92 NSCLC
HCT-116 colon = system: HCT-116 colon
SR leukemia = system: SR leukemia
K-562 leukemia = system: K-562 leukemia
RXF 393 renal = system: RXF 393 renal
SK-MEL-2 melanoma = system: SK-MEL-2 melanoma
HL-60(TB) leukemia = system: HL-60(TB) leukemia
NCI-H522 lung = system: NCI-H522 lung
SN12C renal = system: SN12C renal
SNB-19 CNS = system: SNB-19 CNS
SF-539 CNS = system: SF-539 CNS
ACHN renal = system: ACHN renal
HT29 colon = system: HT29 colon
HOP-18 NSCLC = system: HOP-18 NSCLC
M19-MEL melanoma = system: M19-MEL melanoma
OVCAR-4 ovarian = system: OVCAR-4 ovarian
SK-MEL-5 melanoma = system: SK-MEL-5 melanoma
A549 NSCLC = system: A549 NSCLC
HOP-62 NSCLC = system: HOP-62 NSCLC
SK-MEL-28 melanoma = system: SK-MEL-28 melanoma
EKVX NSCLC = system: EKVX NSCLC
NCI-H226 lung = system: NCI-H226 lung
SK-OV-3 ovarian = system: SK-OV-3 ovarian
UACC-257 melanoma = system: UACC-257 melanoma
KM12 colon = system: KM12 colon
DMS 273 small cell lung = system: DMS 273 small cell lung
CCRF-CEM leukemia = system: CCRF-CEM leukemia
U251 CNS = system: U251 CNS
IGROV1 ovarian = system: IGROV1 ovarian
SNB-75 CNS = system: SNB-75 CNS
UO-31 renal = system: UO-31 renal
LOX IMVI melanoma = system: LOX IMVI melanoma
RPMI-8226 leukemia = system: RPMI-8226 leukemia
MALME-3M melanoma = system: MALME-3M melanoma
OVCAR-8 ovarian = system: OVCAR-8 ovarian
KM20L2 colon = system: KM20L2 colon
M14 melanoma = system: M14 melanoma
COLO 205 colon = system: COLO 205 colon
UACC-62 melanoma = system: UACC-62 melanoma
HCC-2998 colon = system: HCC-2998 colon
HCT-15 colon = system: HCT-15 colon
LXFL 529 NSCLC = system: LXFL 529 NSCLC
TK-10 renal = system: TK-10 renal
SW-620 colon = system: SW-620 colon
SF-268 CNS = system: SF-268 CNS
NCI-H23 lung = system: NCI-H23 lung
DLD-1 colon = system: DLD-1 colon
SNB-78 CNS = system: SNB-78 CNS
OVCAR-5 ovarian = system: OVCAR-5 ovarian
SF-295 CNS = system: SF-295 CNS
OVCAR-3 ovarian = system: OVCAR-3 ovarian
786-0 renal = system: 786-0 renal
DMS 114 small cell lung = system: DMS 114 small cell lung
MOLT-4 leukemia = system: MOLT-4 leukemia

Measured: TGI

CC(=O)O[C@]1(C)CCC2C(C)C(=O)OC2C2C(C)[C@@H](O)CC21 (stereo partly specified)
47.3 µM: OVCAR-3 ovarian
47.9 µM: M14 melanoma
59 µM: LXFL 529 NSCLC
89.7 µM: SK-MEL-5 melanoma
82.5 µM: RXF 393 renal
34.4 µM: NCI-H522 lung
91.3 µM: HOP-92 NSCLC
45.2 µM: HOP-62 NSCLC
36.2 µM: COLO 205 colon
32.5 µM: HCT-15 colon
57.4 µM: M19-MEL melanoma
71.2 µM: KM20L2 colon
50.8 µM: HCT-116 colon
54.9 µM: K-562 leukemia
54.5 µM: DMS 273 small cell lung
34.2 µM: HL-60(TB) leukemia | LOX IMVI melanoma
60.1 µM: RPMI-8226 leukemia
58.3 µM: SK-MEL-2 melanoma
89.5 µM: UACC-62 melanoma
31.2 µM: SW-620 colon
58 µM: HCC-2998 colon
not listed: DMS 114 small cell lung | MOLT-4 leukemia
> 100 µM: all other assays above

Cc1ccc(S(=O)(=O)OCC23CCC(C2)C2CC23)cc1 (stereo unspecified)
98.8 µM: HL-60(TB) leukemia
94.8 µM: HOP-92 NSCLC
not listed: RXF 393 renal | SK-MEL-2 melanoma | NCI-H522 lung | SF-539 CNS | EKVX NSCLC | KM12 colon | SNB-75 CNS | SNB-78 CNS
> 100 µM: all other assays above

CCOC(=O)/C=C1/Oc2ccccc2C1(C)O (stereo unspecified)
not listed: SR leukemia | SF-539 CNS
> 100 µM: all other assays above

Cc1ccc(-c2cc(=O)c3cc4c(cc3[nH]2)OCO4)cc1
20.5 µM: HOP-62 NSCLC
> 42.6 µM: MOLT-4 leukemia
14.2 µM: SK-MEL-2 melanoma
9.94 µM: RXF 393 renal
> 63.4 µM: A549 NSCLC
2.77 µM: HL-60(TB) leukemia
6.64 µM: HCT-15 colon
4.54 µM: SF-539 CNS
10.5 µM: A498 renal | U251 CNS
3.43 µM: KM20L2 colon
> 39.1 µM: UACC-62 melanoma
28.9 µM: SK-OV-3 ovarian
14.6 µM: 786-0 renal
> 60.6 µM: TK-10 renal
4.83 µM: NCI-H522 lung
> 25 µM: DMS 273 small cell lung
8.66 µM: NCI-H226 lung
71.2 µM: HOP-92 NSCLC
> 40.4 µM: SR leukemia
5.56 µM: HCC-2998 colon
> 82.3 µM: OVCAR-5 ovarian
> 72.1 µM: SF-268 CNS
> 22 µM: M14 melanoma
3.82 µM: NCI-H460 lung
5.6 µM: SK-MEL-5 melanoma
35.2 µM: HOP-18 NSCLC
21.8 µM: LXFL 529 NSCLC
> 33.4 µM: MALME-3M melanoma
35 µM: SNB-75 CNS
11.6 µM: SF-295 CNS
3.29 µM: NCI-H23 lung
not listed: COLO 205 colon | SNB-78 CNS
> 100 µM: all other assays above

CCOC(=O)c1c(NNc2ccccc2)nc2ccccc2c1-c1ccccc1
88.6 µM: SNB-78 CNS
77.3 µM: HOP-18 NSCLC
52.5 µM: M19-MEL melanoma
92.3 µM: SN12C renal
35.2 µM: SK-MEL-5 melanoma
95.7 µM: A549 NSCLC
58.3 µM: CCRF-CEM leukemia
80.8 µM: M14 melanoma
32 µM: UACC-62 melanoma
82.2 µM: OVCAR-8 ovarian
59.3 µM: HOP-62 NSCLC
93.2 µM: SNB-75 CNS
67 µM: OVCAR-3 ovarian
86.3 µM: RXF 393 renal
44.3 µM: HL-60(TB) leukemia
32.9 µM: DMS 114 small cell lung
50.9 µM: NCI-H23 lung
77.9 µM: K-562 leukemia
47.2 µM: HCT-116 colon
40.1 µM: LOX IMVI melanoma
64.3 µM: MALME-3M melanoma
42.9 µM: MOLT-4 leukemia
66.3 µM: UO-31 renal
92 µM: NCI-H226 lung
67.3 µM: NCI-H460 lung
47.3 µM: RPMI-8226 leukemia
32.1 µM: SK-MEL-2 melanoma
91.9 µM: SF-268 CNS
56.4 µM: SR leukemia
74.9 µM: SF-539 CNS
56.8 µM: NCI-H522 lung
> 100 µM: all other assays above
